Active and inactive are the calls of the source. The rule behind the calls is not given here.
Columns and labels:
[1] = test system: HeLa; assay: Antiproliferative activity against human HeLa cells assessed as reduction in cell viability incubated for 72 hrs by MTT assay; assay type: functional, cell-based
[2] = Antiproliferative activity against human HEK293 cells assessed as reduction in cell viability incubated for 72 hrs by CelltiterGlo luminescent assay; assay type: toxicity, cell-based
[3] = Antiproliferative activity against human Hermes 3C cells assessed as reduction in cell viability incubated for 72 hrs by CelltiterGlo luminescent assay; assay type: toxicity, cell-based
[4] = test system: HeLa; assay: Antiproliferative activity against human HeLa cells assessed as inhibition of cell growth incubated for 72 hrs in absence of verapamil by MTT assay; assay type: functional, cell-based
[5] = cells; details: Homo sapiens, MDA-MB-468, 72 h
[6] = test system: CAKI-1; assay: Antiproliferative activity against human CAKI-1 cells assessed as reduction in cell viability incubated for 72 hrs by CelltiterGlo luminescent assay; details: CAKI-1, 72 h
[7] = test system: MCF7; assay: Antiproliferative activity against human MCF7 cells assessed as reduction in cell viability incubated for 72 hrs by CelltiterGlo luminescent assay; assay type: functional, cell-based; details: MCF7, 72 h
[8] = Antiproliferative activity against human RPE-1 cells assessed as reduction in cell viability incubated for 72 hrs by CelltiterGlo luminescent assay; assay type: toxicity, cell-based; details: RPE-1 cells (TERT-RPE1)
[9] = test system: HeLa; assay: Antiproliferative activity against human HeLa cells assessed as reduction in cell viability incubated for 72 hrs by CelltiterGlo luminescent assay; assay type: functional, cell-based
[10] = test system: MDA-MB-468; assay: cells; details: Homo sapiens, MDA-MB-468, 72 h
Description: Antiproliferative activity against human MDA-MB-468 cells assessed as reduction in cell viability incubated for 72 hrs by CelltiterGlo luminescent assay

[11] = Antiproliferative activity against human WM1366 cells assessed as reduction in cell viability incubated for 72 hrs by CelltiterGlo luminescent assay; details: WM1366, 72 h
[12] = test system: HT-1080; assay: Antiproliferative activity against human HT-1080 cells assessed as reduction in cell viability incubated for 72 hrs by CelltiterGlo luminescent assay; details: HT-1080, 72 h
[13] = test system: MES-SA; assay: Antiproliferative activity against human MES-SA cells assessed as reduction in cell viability incubated for 72 hrs by CelltiterGlo luminescent assay
[14] = test system: HeLa; assay: Antiproliferative activity against human HeLa cells assessed as inhibition of cell growth incubated for 72 hrs in presence of verapamil by MTT assay; assay type: functional, cell-based
[15] = Antiproliferative activity against human Melmet 5 cells assessed as reduction in cell viability incubated for 72 hrs by CelltiterGlo luminescent assay; details: Melmet 5, 72 h
[16] = test system: A-375; assay: Antiproliferative activity against human A-375 cells assessed as reduction in cell viability incubated for 72 hrs by CelltiterGlo luminescent assay; details: A-375, 72 h
[17] = test system: BT-474; assay: Antiproliferative activity against human BT-474 cells assessed as reduction in cell viability incubated for 72 hrs by CelltiterGlo luminescent assay; details: BT-474, 72 h
[18] = biological target: Tubulin (Homo sapiens) (UniProt P68371+Q9H4B7+P0DPH7+P68366+Q13509+Q71U36+P04350+Q3ZCM7+P07437+P68363+Q9BQE3+Q6PEY2+Q13885+Q9BVA1+Q9BUF5); assay: Inhibition of tubulin polymerization in human MES-SA cells assessed as appearance of spherical shaped cells at 10 nM incubated for 24 hrs by DAPI staining based confocal microscopy analysis; assay type: cell-based

With `C#CCN(c1ccc2c(ccn2C)c1)S(=O)(=O)c1cc(OC)c(OC)c(OC)c1` the IC50 [1] was 79.8 nM.
`CC(=O)O[C@H]1C(=O)[C@@]2(C)[C@H]([C@H](OC(=O)c3ccccc3)[C@]3(O)C[C@H](OC(=O)[C@H](O)[C@@H](NC(=O)c4ccccc4)c4ccccc4)C(C)=C1C3(C)C)[C@]1(OC(C)=O)CO[C@@H]1C[C@@H]2O` [PACLITAXEL] showed an IC50 at 72 h [2] of 26.8 nM and an IC50 at 72 h [3] of 1 nM.
Compound `COc1cc(S(=O)(=O)N(CC#N)c2ccc3c(c2)c(C(N)=O)cn3C)cc(OC)c1OC` has an IC50 [4] of 50.9 nM, an IC50 at 72 h [2] of 282 nM and an IC50 [5] of 72.9 nM. The IC50 [6] was 98.3 nM, the IC50 [7] was 48.6 nM and the IC50 at 72 h [8] was 33 nM. It also gave an IC50 [9] of 68.8 nM, an IC50 [10] of 20.3 nM and an IC50 [11] of 36 nM. The IC50 [1] was 50.9 nM, the IC50 [12] was 16.6 nM and the IC50 [13] was 14.2 nM. It also gave an IC50 [14] of 26.4 nM, an IC50 [15] of 16.2 nM and an IC50 [16] of 48.3 nM. It also gave an IC50 [17] of 40.8 nM and an IC50 at 72 h [3] of 88.5 nM.
For `CCN(c1ccc2c(ccn2C)c1)S(=O)(=O)c1cc(OC)c(OC)c(OC)c1`, the IC50 [4] was 123 nM, the IC50 at 72 h [2] was 323 nM and the IC50 [5] was 145 nM. It also gave an IC50 [6] of 158 nM, an IC50 [7] of 347 nM and an IC50 at 72 h [8] of 335 nM. It also gave an IC50 [9] of 108 nM, an IC50 [10] of 161 nM and an IC50 [11] of 517 nM. It also gave an IC50 [1] of 109 nM, an IC50 [12] of 104 nM and an IC50 [13] of 148 nM. It also gave an IC50 [14] of 105 nM, an IC50 [15] of 96.2 nM and an IC50 [16] of 363 nM. It also gave an IC50 [17] of 792 nM and an IC50 at 72 h [3] of 965 nM.
For `COc1cc(S(=O)(=O)N(CCCCCCN2CCOCC2)c2ccc3c(ccn3C)c2)cc(OC)c1OC`, the IC50 [1] was > 1000 nM.
For `COc1cc(S(=O)(=O)N(CCCBr)c2ccc3c(ccn3C)c2)cc(OC)c1OC`, the IC50 [1] was > 1000 nM.
For `COc1cc(S(=O)(=O)N(CCCC(=O)O)c2ccc3c(ccn3C)c2)cc(OC)c1OC`, the IC50 [1] was > 1000 nM.
Work on `COc1cc(S(=O)(=O)N(CC(N)=O)c2ccc3c(ccn3C)c2)cc(OC)c1OC` yielded an IC50 [1] of 275 nM.
For `COc1cc(S(=O)(=O)N(C)c2ccc3c(c2)C=CC3CC#N)cc(OC)c1OC` (configuration not stated), the IC50 [1] was 114 nM.
Compound `CC[C@]1(O)C[C@H]2CN(CCc3c([nH]c4ccccc34)[C@@](C(=O)OC)(c3cc4c(cc3OC)N(C=O)[C@H]3[C@@](O)(C(=O)OC)[C@H](OC(C)=O)[C@]5(CC)C=CCN6CC[C@]43[C@@H]65)C2)C1` [VINCRISTINE] has an IC50 at 72 h [2] of 25.8 nM, an IC50 [6] of 5.7 nM and an IC50 [7] of 4.2 nM. The IC50 at 72 h [8] was 7.6 nM, the inhibition [18] was “Active” and the IC50 [9] was 1 nM. The IC50 [10] was 0.4 nM, the IC50 [11] was 4.5 nM and the IC50 [12] was 0.3 nM. The IC50 [13] was 4.9 nM, the IC50 [15] was 0.2 nM and the IC50 [16] was 3.5 nM. The IC50 [17] was 2.9 nM and the IC50 at 72 h [3] was 2.8 nM.
In the case of `COc1cc(S(=O)(=O)N(Cc2cccc(N)c2)c2ccc3c(ccn3C)c2)cc(OC)c1OC`, the IC50 [1] is reported as > 1000 nM.
With `CCC1=C[C@@H]2CN(C1)Cc1c([nH]c3ccccc13)[C@@](C(=O)OC)(c1cc3c(cc1OC)N(C)[C@H]1[C@@](O)(C(=O)OC)[C@H](OC(C)=O)[C@]4(CC)C=CCN5CC[C@]31[C@@H]54)C2` [VINORELBINE] the IC50 at 72 h [2] was 15.9 nM, the IC50 [6] was 0.3 nM and the IC50 [7] was 0.8 nM. For the same compound, the IC50 at 72 h [8] was 9.3 nM, the IC50 [9] was 0.3 nM and the IC50 [10] was 0.1 nM. It also gave an IC50 [11] of 0.9 nM, an IC50 [12] of 0.1 nM and an IC50 [13] of 0.4 nM. It also gave an IC50 [15] of 0.1 nM, an IC50 [16] of 0.6 nM and an IC50 [17] of 0.3 nM. The IC50 at 72 h [3] was 0.5 nM.
In the case of `COc1cc(S(=O)(=O)N(CCCCC(=O)O)c2ccc3c(ccn3C)c2)cc(OC)c1OC`, the IC50 [1] is reported as > 1000 nM.
`COc1cc(S(=O)(=O)N(CC#N)c2ccc3c(c2)C=CC3CC#N)cc(OC)c1OC` (configuration not stated) gave an IC50 [1] of 974 nM.
In the case of `COc1cc(S(=O)(=O)N(Cc2ccccc2)c2ccc3c(ccn3C)c2)cc(OC)c1OC`, the IC50 [1] is reported as > 1000 nM.
With `CCOC(=O)CCCN(c1ccc2c(ccn2C)c1)S(=O)(=O)c1cc(OC)c(OC)c(OC)c1` the IC50 [1] was > 1000 nM.
For `COc1cc(S(=O)(=O)N(CC#N)c2ccc3c(c2)c(C#N)cn3C)cc(OC)c1OC`, the IC50 [4] was 34.5 nM, the IC50 at 72 h [2] was 17.7 nM and the IC50 [5] was 34.4 nM. For the same compound, the IC50 [6] was 29.5 nM, the IC50 [7] was 60.8 nM and the IC50 at 72 h [8] was 76.3 nM. It also gave an IC50 [9] of 77.3 nM, an IC50 [10] of 31.6 nM and an IC50 [11] of 81.3 nM. The IC50 [1] was 24.4 nM, the IC50 [12] was 65.8 nM and the IC50 [13] was 80.3 nM. The IC50 [14] was 27.2 nM, the IC50 [15] was 32.3 nM and the IC50 [16] was 86.8 nM. For the same compound, the IC50 [17] was 71.1 nM and the IC50 at 72 h [3] was 70.5 nM.
With `COc1cc(S(=O)(=O)N(CCN2CCOCC2)c2ccc3c(ccn3C)c2)cc(OC)c1OC` the IC50 [1] was > 1000 nM.

— ChEMBL document CHEMBL5579852, “Promising anti-proliferative indolic benzenesulfonamides alter mechanisms with sulfonamide nitrogen substituents” (Eur J Med Chem, 2024)
